Entries after “also recorded” stand apart in the source; their conditions may differ.
Columns and labels:
[1] = Tail flick test, intra-gastric, intra-ileal and intra-colonic butorphanol; format: in vivo
Source text: FIG. 13: Time-effect curves depicting antinociceptive effect of intra-gastric, intra-ileal and intra-colonic butorphanol in the tail flick test. The percent maximum possible effect (% MPE) is plotted versus time.
FIG. 14: Time-effect curves depicting antinociceptive effect of intra-gastric, intra-ileal and intra-colonic butorphanol in the tail flick test. The percent maximum possible effect (% MPE) is plotted versus time.

[2] = test system: vincristine induced painful neuropathy; assay: Vincristine induced painful neuropathy, mechanical allodynia (von Frey filaments); format: in vivo, Wistar rats; conditions: vincristine neuropathic rats
Source text: (§1) The aim of this study was to evaluate the effect of oral administration of butorphanol in rats with vincristine induced painful neuropathy. The primary measurements were made mechanical and thermal allodynia designed to detect effects of the treatment(s) on neuropathic pain.
(§2) Wistar rats weighing 250±20 g were maintained on standard laboratory diet and having free access to tap water ad lib were employed in the present study. They were housed in the animal house and were exposed to 12 hr cycle of light and dark. The experiments were conducted in a semi-sound proof laboratory. Care of the animals was in accordance with guidelines for experimentation on animals.
The vincristine model was adapted from Authier et al (1999). Rats were injected on five alternate days (day 4, 6, 8, 10 & 12) with vincristine (200 μg/kg i.p.) using an injection volume of 2 ml/kg. […]
Mechano-allodynia was assessed using von Frey filaments. […] Both hind paws were tested for allodynia and the average of the two was recorded as data. Results were expressed in grams and determined before and 30 and 60 min after the administration of the test drugs.
(§3) The anti-nociceptive effect was plotted assessed having time (relative to dosing time point) on the x-axis and percent maximum possible effect (% MPE) on the y-axis. The results were expressed as mean±standard error of means (S.E.M.). […]

[3] = test system: streptozotocin (STZ) induced diabetes neuropathy; assay: Streptozotocin induced diabetic neuropathy, mechanical allodynia (von Frey filaments); format: in vivo, Wistar rats; conditions: STZ diabetic neuropathic rats
Experimental: as §1, with “streptozotocin (STZ)” for “vincristine”, “diabetes” for “painful”, “neuropathy. A single injection of streptozotocin (STZ) (40-70 mg/kg, i.p.) was used to induce diabetes in rats.” for “neuropathy.”
as §2
The STZ-induced diabetes model was adapted from Arison et al (1967). […]
Mechano-allodynia was assessed using von Frey filaments. […] Both hind paws were tested for allodynia and the average of the two was recorded. Results were expressed in grams and determined before and 30 and 60 min after the administration of the test drugs.
as §3

[4] = oral; dosage form that models extended release
opioid receptors = conditions: cited from earlier work
δ-opioid receptor = δ-opioid receptor (Homo sapiens, UniProt P41143); conditions: cited from earlier work
δ-opioid receptor, sequence (P41143 whole entry): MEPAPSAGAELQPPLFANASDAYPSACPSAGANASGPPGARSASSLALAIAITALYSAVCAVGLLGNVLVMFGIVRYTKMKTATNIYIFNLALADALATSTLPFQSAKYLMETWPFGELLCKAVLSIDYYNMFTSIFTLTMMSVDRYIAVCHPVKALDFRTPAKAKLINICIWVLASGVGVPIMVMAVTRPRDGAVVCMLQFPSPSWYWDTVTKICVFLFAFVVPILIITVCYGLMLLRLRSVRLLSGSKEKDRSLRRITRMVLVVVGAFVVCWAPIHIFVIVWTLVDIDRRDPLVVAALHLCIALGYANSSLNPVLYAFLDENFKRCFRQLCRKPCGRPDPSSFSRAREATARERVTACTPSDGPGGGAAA

[5] = cited from earlier work

## Oc1ccc2c(c1)[C@@]13CCCC[C@@]1(O)[C@@H](C2)N(CC1CCC1)CC3 [butorphanol, (−)17-(Cyclobutylmethyl)morphinan-3,14-diol]
[1]; intra-colonic
  antinociceptive effect, position of the % MPE time-effect curve: Top curve
[1]; intra-gastric
  antinociceptive effect, position of the % MPE time-effect curve: bottom curve
[1]; intra-ileal
  antinociceptive effect, position of the % MPE time-effect curve: second from top curve
[2]; oral 1, 3, 10, 30 mg/kg, FIG. 15
  mechanical withdrawal threshold: dose dependent increase; also recorded: significant increase
[2]; oral
  time of peak effect post-administration (mechanical allodynia): 30 min
[3]; oral 1, 3, 10, 30 mg/kg, FIG. 19
  mechanical withdrawal threshold: dose dependent increase; also recorded: significant increase
[3]; oral
  time of peak effect post-administration (mechanical allodynia): 30 min
[4]
  therapeutic effect: robust therapeutic effects
Opioid receptors
  activity at opioid receptors: partial agonist
δ-opioid receptor
  activity at the δ-opioid receptor: preponderantly antagonist activity
[5]; in vivo
  mean half-life: about 5 hours
[5]; widely reported
  oral bioavailability: poor

From patent US10624887B2, “Compositions of (-)-17-(cyclobutylmethyl)morphinan-3,14,-diol” (priority 2010, dated 2020)
